pIC50: −log10 of the molar value.
Molecular target: Sodium-dependent dopamine transporter (Homo sapiens, UniProt Q01959)
Test: Inhibition of [3H]dopamine uptake at dopamine transporter

Chain of Sodium-dependent dopamine transporter (Q01959 whole entry): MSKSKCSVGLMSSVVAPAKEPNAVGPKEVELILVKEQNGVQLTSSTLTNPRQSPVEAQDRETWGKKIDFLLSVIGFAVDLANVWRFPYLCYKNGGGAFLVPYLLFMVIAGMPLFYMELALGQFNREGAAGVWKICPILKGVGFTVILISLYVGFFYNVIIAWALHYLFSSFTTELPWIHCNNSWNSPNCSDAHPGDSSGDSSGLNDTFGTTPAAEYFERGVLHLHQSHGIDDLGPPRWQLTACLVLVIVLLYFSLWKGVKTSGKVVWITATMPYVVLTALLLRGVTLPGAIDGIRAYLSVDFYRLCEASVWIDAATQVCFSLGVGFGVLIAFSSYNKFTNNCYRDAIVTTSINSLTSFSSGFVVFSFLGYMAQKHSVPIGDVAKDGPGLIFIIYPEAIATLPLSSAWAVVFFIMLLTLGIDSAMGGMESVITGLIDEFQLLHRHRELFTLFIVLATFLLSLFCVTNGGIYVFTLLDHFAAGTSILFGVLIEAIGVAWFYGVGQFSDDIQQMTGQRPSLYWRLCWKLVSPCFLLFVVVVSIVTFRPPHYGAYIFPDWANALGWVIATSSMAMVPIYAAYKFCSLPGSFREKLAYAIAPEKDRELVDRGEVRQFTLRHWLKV

Compound | pIC50
O=C(CCCCCCCCCCS)Nc1ccc(CCCN2CCN(CCOC(c3ccccc3)c3ccccc3)CC2)cc1 | 8.00
O=C(CCCCCCCCCCS)Nc1ccc(CCCN2CCN(CCOC(c3ccc(F)cc3)c3ccc(F)cc3)CC2)cc1 | 7.74

— ChEMBL document CHEMBL1149518, “High affinity inhibitors of the dopamine transporter (DAT): novel biotinylated ligands for conjugation to quantum dots” (Bioorg Med Chem Lett, 2006)
